Entries after “also recorded” stand apart in the source; their conditions may differ.
Key:
[1] = Dog pharmacokinetics of the enantiomers after oral dosing of racemic AV1013; type: in vivo; conditions: for Cmax: po
Procedure: Three male beagle dogs were dosed orally with 10 mg/kg racemic AV1013 via gavage. AV1013 was dissolved in water at 5 mg/ml and dosed via gavage at a volume of 2 ml/kg. Blood samples were collected via the jugular vein at 5, 15 and 30 minutes, 1, 2, 4, 6, 8, and 24 hours post dosing.
(§1) A sensitive and specific chiral HPLC/MS/MS bioanalytical method for the detection of (S)-AV1013 and (R)-AV1013 enantiomers in rat and dog plasma was utilized. AV1013 enantiomers and the internal standard (AV1040, an analog of AV1013) were isolated from plasma by protein precipitation induced by acetonitrile. After centrifugation to sediment the proteins, the supernatant fractions were analyzed by high performance liquid chromatography (LC) in conjunction with a triple quadrupole mass spectrometer that used electrospray ionization in tandem with positive ionization (MS/MS) according to the conditions below. The LLOQ (lower level of quantitation) was typically <3 ng/mL.
(§2) Analysis of pharmacokinetic parameters was performed for each enantiomer via LC/MS bioanalytics and WinNonlin™ analysis (version 4.0.1; Pharsight Corp., Mountain View, Calif.), commercial software designed for the analysis of PK data. The PK modeling was based on a non-compartmental model with gradual input into the central compartment. Computation of the area under the curve (AUC) was based on the sum of trapezoidal areas for the plotted plasma concentration-time data. AUC and associated parameters were estimated by log-linear regression analysis of the terminal phase.

[2] = Rat pharmacokinetics of the enantiomers after oral dosing of racemic AV1013; type: in vivo; conditions: for Cmax: po
Procedure: Three male Sprague-Dawley rats were dosed orally via gavage with 25 mg/kg racemic AV1013 dissolved in water. Serial blood samples were collected from the tail vein at 5, 15, and 30 min, 1, 3, and 6 hours post dosing. Samples were processed for plasma via centrifugation and plasma samples were stored frozen prior to analysis.
as §1, §2

Water solubility = type: physicochemical
[3] = Bioavailability and duration of action of (S)-AV1013
[4] = Chiral and chemical stability in solution and on storage; type: physicochemical; conditions: for racemization in dosing solutions and bioanalytical solutions: saline vehicle, DMSO:methanol, 1:1
From the text: Without ascribing to any particular theory, the present inventors believe that the facile separation of enantiomers using the N-protected racemate of AV1013 is probably due to the greater stability of the racemate as well as the separate enantiomers in protected form. […] Unstability also stems from the ability of the free base to self condense. Because self-condensation is promoted in concentrated solutions, it is desirable to avoid highly concentrated solutions of the free base form of optically active AV1013. Likewise, the free base form of racemic AV1013 or its hydrochloride salt are also unstable, precluding their use as precursors to obtaining (S)-AV1013 as a free base or its hydrochloride salt in high yield and/or high purity.
Thus, it is often desirable to re-purify the de-protected product using purification techniques known in the art. For example, any one or more of the methods described above for separating chiral molecules, such as, chromatography (e.g., HPLC, GC, and SFC), crystallization, fractional crystallization, and the like may be used for re-purification. An exemplary method is recrystallization. Purification by recrystallization allows separation of the desired (S)-enantiomer in high purity, such that the overall reaction sequence including isolation of the desired (S)-enantiomer requires only a single chromatographic step (i.e., the chiral separation). Recrystallization can be carried out in any of a number of single or mixed solvent systems including alcohols, ethers, esters, nitriles, halogenated hydrocarbons, amides and aqueous mixtures thereof. Suitable solvents include methanol, ethanol, propanol, iso-propanol, acetone, tetrahyrofuran, methyl ethyl ketone, methyl isobutyl ketone, ethyl acetate, amyl acetate, acetonitrile, diethyl ether, methyl tert-butyl ether, dichloromethane, dichloroethane, chloroform, dimethylformamide, and combinations thereof. Illustrative mixed solvent systems used to recrystallize (S)-AV1013 are iso-propanol/methyl tert-butyl ether and ethanol/methyl tert-butyl ether.
The five-step route provided a 15% overall yield of (S)-AV1013.HCl. The chiral separation, by SFC chromatography, is the only chromatographic step required. Hydrolysis of the N-protected (S)-AV1013, followed by recrystallization from iso-propanol/methyl tert-butyl ether provided (S)-AV1013.HCl in greater than 99% chemical purity and greater than 97% S-enantiomer (greater than 94% enantiomeric excess (ee)) by chiral HPLC, as determined from the equation ee=[|R−S^51÷(R+S)]×100 ee=[|R−S|÷(R+S)]×100. […] Even under optimal storage and handling conditions to minimize exposure to moisture, a small degree of racemization (i.e., approximately 2%) was observed. Recrystallization was effective to improve enantiomeric purity to arrive at a product having an illustrative chiral purity as described above. […] The recrystallized (S)-AV 1013.HCl contained approximately 25 mole percent alcohol (less than about 10% by weight) even when dried at 50° C. Thus, it appears that the resultant product is formed as a solvate under the recrystallization and drying conditions employed.

Rolipram binding site = experiment: Inhibition of binding at the Rolipram binding site; conditions: 10 uM
[5] = target: T1, rhMIF (recombinant human Macrophage migration Inhibitory Factor) (Homo sapiens, UniProt P14174); experiment: MIF-induced migration of human peripheral blood monocytes (PBMCs); type: cell-based; conditions: rhMIF 90 nM, dilution series of inhibitor
T1 sequence (P14174 2-115 limits assumed): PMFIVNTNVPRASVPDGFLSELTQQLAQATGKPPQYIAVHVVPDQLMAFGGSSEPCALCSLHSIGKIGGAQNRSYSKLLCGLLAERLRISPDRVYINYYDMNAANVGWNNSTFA
Procedure: The chemo attractant activities of rhMIF (recombinant human Macrophage migration Inhibitory Factor) and the effect of inhibitors were measured using human peripheral blood monocytes (PBMCs) isolated from whole blood by centrifugation on Histopaque-1077 (Sigma). The cells were washed in RPMI-1640, diluted to 1×10^6 cells/ml and analyzed immediately. These assays were carried out in 24 well tissue culture plates utilizing 8.0 μm cell culture inserts (Falcon). Recombinant hMIF (90 nM), diluted in RPMI was placed in the cells of a 24 well plate with or without inhibitor (10-fold molar excess or dilution series) and allowed to incubate for 30 min at 37° C., 5% CO2. Washed human monocytes were added to the upper chamber of 8.0 μm cell culture inserts and allowed to incubate for 3 hrs at 37° C., 5% CO2. Cells that migrate through the membrane were fixed in methanol and stained with Geimsa, prior to cell counting using light microscopy.
Results are expressed as the mean number of cells counted per high power field for each of two replicates to obtain statistically significant data. (Legend: −Star=no human MIF, Skull=no human MIF+10 uM (S)-AV1013. See FIGS. 5A and 5B.

**Q.** Which results are given for `CC(C)c1nn2ccccc2c1C(=O)[C@H](C)N` [(S)-AV1013, (S)-2-amino-1-(2-isopropylpyrazolo[1,5-a]pyridin-3-yl)propan-1-one]?
**A.** AUC of (S) relative to (R) enantiomer ([1]; dog, oral dosing of racemate): > 3 fold; Cmax of (S) relative to (R) enantiomer ([1]; dog, oral dosing of racemate): at least 2 fold; Cmax of (S) relative to (R) enantiomer ([1]; dog, oral dosing of racemate, listed as (S)-enantiomer): > 2 fold; Cmax ([1]; male, beagle, dog, plasma, 10 mg/kg, beagle dog, oral 10 mg/kg racemic AV1013, plasma, read-out: Cmax): 2630 ng/mL; Cmax ([1]; male, beagle, dog, plasma, 10 mg/kg, dog, oral dosing of racemate, rounded values, read-out: mean peak plasma levels (Cmax)): 2600 ng/mL; AUC ([1]; male, beagle, plasma, 10 mg/kg, dog, oral dosing of racemate, rounded values, read-out: calculated area under the curves (AUC)): 24200 ng·h/mL; AUC(0-t) ([1]; male, beagle dog, oral 10 mg/kg racemic AV1013, plasma): 24200 ng·h/mL; AUC(0-t) ([2]; male, Sprague-Dawley, oral 25 mg/kg racemic AV1013, plasma): 5950 ng·h/mL; AUC ([2]; male, Sprague-Dawley, plasma, 25 mg/kg, oral dosing of racemate, rounded values, read-out: calculated area under the curves (AUC)): 6000 ng·h/mL; Cmax ([2]; male, Sprague-Dawley, plasma, 25 mg/kg, oral 25 mg/kg racemic AV1013, plasma, read-out: Cmax): 1260 ng/mL; Cmax ([2]; male, Sprague-Dawley, plasma, 25 mg/kg, oral dosing of racemate, rounded values, read-out: mean peak plasma levels (Cmax)): 1300 ng/mL; AUC of (S) relative to (R) enantiomer ([2]; oral dosing of racemate): around 17 fold; Cmax of (S) relative to (R) enantiomer ([2]; oral dosing of racemate): at least 3 fold; water solubility (Water solubility): good water solubility; in vivo duration of action [3]: 2 to 24 h; bioavailability ([3]; in vivo, share of the (S)-enantiomer dosed that is bioavailable): > 70%; stability / racemization in solution ([4]; free base (or hydrochloride salt where stated), in solution): unstable and racemizes in solution; also recorded: racemizes slowly in solution; racemization in dosing solutions and bioanalytical solutions [4]: no detectable interconversion between the enantiomers; racemization in dosing solutions and bioanalytical solutions ([4]; listed as (S)-enantiomer): no racemization has been documented; inhibition of the Rolipram binding site (Rolipram binding site): 12%; antagonism of MIF-induced cell migration [5]: antagonize MIF-induced macrophage migration in a dose-dependent fashion; also recorded: antagonize MIF-induced mononuclear cell migration in a similar dose dependent fashion

Source: patent publication US8119657B2, “Enantiomeric compositions of 2-amino-1-(2-isopropylpyrazolo[1,5-α]pyridin-3-yl)propan-1-one and related methods” (MediciNova, Inc., priority 2009, dated 2012)
